# Columns and labels:
# AChE = molecular target: T1, AChE (Electrophorus electricus, UniProt O42275); test: biochemical; settings: for inhibition at 62.5 µg/mL: Conc. 62.5 µg/mL; for inhibition at 125 µg/mL: Conc. 125 µg/mL; for inhibition at 250 µg/mL: Conc. 250 µg/mL; for inhibition at 500 µg/mL: Conc. 500 µg/mL; for inhibition at 1000 µg/mL: Conc. 1000 µg/mL
# T1 construct: The enzyme AChE is derived from Electric eel and BChE from equine serum; from tissue
# Protocol: (§1) The enzyme AChE is derived from Electric eel and BChE from equine serum. Buffer of phosphate, 0.1 M at pH 8.0 was prepared to whom varied concentration ([…]–1000 μg/mL) of the respective compound was added. The solution of AChE was diluted to 0.03 U/mL from 518 U/mg, similarly BChE from 7–16 U/mg to 0.01 U/mL at the given pH condition. Distilled water was used as solvent, for preparation of 0.5 mM acetylthiocholine iodide (ATchI), 0.2273 mM 5,5′-dithiobis-2-nitrobenzoic acid (DTNB) and 0.5 mM butyrylthiocholine iodide (BTchI). All solutions were stored at 8 °C in a refrigerator prior to performing the experiment.
# (§2) Enzyme solution (5 μL), corresponding compound (205 μL), and DTNB reagent (5 μL) were mixed in a cuvette. The solution was incubated for 15 min at 30 °C followed by addition of 5 μL of the substrate solution. Absorbance of the incubated sample was measured at 412 nm by a double-beam spectrophotometer (Thermo Electron Corporation, USA) for 4 min along with the reaction time at 30 °C. The well-established Galanthamine was used as positive control and all experiments were performed in triplicate. The percent enzyme activity and enzyme inhibition by control and test samples were calculated from the rate of absorption with respect to change in time (V = ΔAbs/Δt) using the same procedure as reported previously.
# BChE = molecular target: T2, BChE (Equus caballus, UniProt P81908); test: Ellman's assay, BChE inhibition; assay type: biochemical; settings: for inhibition at 62.5 µg/mL: Conc. 62.5 µg/mL; for inhibition at 125 µg/mL: Conc. 125 µg/mL; for inhibition at 250 µg/mL: Conc. 250 µg/mL; for inhibition at 500 µg/mL: Conc. 500 µg/mL; for inhibition at 1000 µg/mL: Conc. 1000 µg/mL
# T2 construct: The enzyme AChE is derived from Electric eel and BChE from equine serum; from tissue; host or cells: equine serum
# T2 sequence (P81908 whole entry): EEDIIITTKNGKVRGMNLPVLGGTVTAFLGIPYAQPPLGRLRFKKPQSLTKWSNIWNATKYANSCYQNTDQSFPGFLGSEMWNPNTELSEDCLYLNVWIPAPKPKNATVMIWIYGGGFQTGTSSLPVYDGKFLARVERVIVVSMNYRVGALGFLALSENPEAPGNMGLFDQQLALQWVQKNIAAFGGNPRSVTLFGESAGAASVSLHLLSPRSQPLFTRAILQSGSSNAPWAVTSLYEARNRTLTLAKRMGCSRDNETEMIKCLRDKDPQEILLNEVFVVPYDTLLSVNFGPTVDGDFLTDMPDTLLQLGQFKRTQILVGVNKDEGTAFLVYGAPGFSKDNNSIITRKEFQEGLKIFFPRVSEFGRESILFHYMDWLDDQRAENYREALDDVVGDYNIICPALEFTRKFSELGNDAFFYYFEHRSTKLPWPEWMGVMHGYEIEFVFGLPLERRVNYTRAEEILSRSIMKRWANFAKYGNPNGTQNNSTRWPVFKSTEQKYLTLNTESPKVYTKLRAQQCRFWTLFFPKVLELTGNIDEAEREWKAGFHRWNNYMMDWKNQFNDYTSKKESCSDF
# Protocol: as §1, §2
# melanin B16 cells = test system: melanin B16 cells; design: method as in PMID 21978680, PMID 28904627; settings: ref [6],[42]; read-out: IC50 as melanin B16 inhibitor; cited from earlier work
# mushroom tyrosinase = test system: mushroom tyrosinase; design: method as in PMID 21978680, PMID 28904627; settings: ref [6],[42]; cited from earlier work
# T1 sequence (O42275 24-633): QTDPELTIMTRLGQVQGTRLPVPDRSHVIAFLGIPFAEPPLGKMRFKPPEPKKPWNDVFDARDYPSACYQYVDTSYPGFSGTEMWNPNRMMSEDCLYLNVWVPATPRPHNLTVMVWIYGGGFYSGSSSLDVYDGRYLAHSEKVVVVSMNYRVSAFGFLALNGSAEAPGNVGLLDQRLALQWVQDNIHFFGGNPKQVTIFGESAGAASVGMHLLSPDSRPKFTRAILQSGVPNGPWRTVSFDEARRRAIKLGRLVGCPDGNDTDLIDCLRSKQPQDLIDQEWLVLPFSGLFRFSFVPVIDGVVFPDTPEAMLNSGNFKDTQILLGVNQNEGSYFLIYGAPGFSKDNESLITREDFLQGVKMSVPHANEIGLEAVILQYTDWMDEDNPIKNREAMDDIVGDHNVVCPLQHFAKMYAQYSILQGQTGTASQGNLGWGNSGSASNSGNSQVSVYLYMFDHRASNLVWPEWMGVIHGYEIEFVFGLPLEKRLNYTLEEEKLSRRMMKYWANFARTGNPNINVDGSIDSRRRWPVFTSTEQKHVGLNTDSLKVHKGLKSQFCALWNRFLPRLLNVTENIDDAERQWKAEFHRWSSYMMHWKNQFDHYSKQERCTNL
Structure (SMILES),IC50 (AChE),inhibition at 62.5 µg/mL (AChE),inhibition at 125 µg/mL (AChE),inhibition at 250 µg/mL (AChE),inhibition at 500 µg/mL (AChE),IC50 (BChE),inhibition at 62.5 µg/mL (BChE),inhibition at 125 µg/mL (BChE),inhibition at 250 µg/mL (BChE),inhibition at 500 µg/mL (BChE),inhibition at 1000 µg/mL (BChE),IC50 (melanin B16 cells),potency as mushroom tyrosinase inhibitor (mushroom tyrosinase),inhibition at 1000 µg/mL (AChE),inhibition at 31.5 µg/mL (AChE; Conc. 31.5 µg/mL),inhibition at 31.5 µg/mL (BChE; Conc. 31.5 µg/mL)
"S=C(Nc1cccc(Cl)c1)NC1CCCCC1 [Compound 3, 1-(3-chlorophenyl)-3-cyclohexylthiourea]",186 µM,51.9 ± 1.16%,57.34 ± 0.55%,61.36 ± 0.49%,67.39 ± 0.49%,223 µM,49.9 ± 0.65%,57.2 ± 0.57%,65.5 ± 1.04%,71.3 ± 1.11%,76.7 ± 0.66%,,,,,
"S=C(Nc1ccccc1)Nc1ccc(Cl)cc1 [Compound 6, 1-(4-chlorophenyl)-3-phenylthiourea]",1080 µM,31.9 ± 0.48%,39 ± 0.48%,47.9 ± 0.96%,61.6 ± 1.34%,1010 µM,33 ± 1.15%,42.7 ± 0.89%,49 ± 0.58%,63.03 ± 0.23%,71.33 ± 0.49%,3.4 µM,moderate potency,69.6 ± 1.12%,,
"CC(C)CNC(=S)NC1CCCCC1 [Compound 1, 1-isobutyl-3-cyclohexylthiourea]",415 µM,46.52 ± 0.38%,53.64 ± 0.16%,57.6 ± 1.7%,63.94 ± 0.45%,392 µM,46.9 ± 0.42%,56.4 ± 0.63%,61 ± 0.33%,66.2 ± 0.73%,74.4 ± 0.68%,,,69.47 ± 0.22%,,
"S=C(Nc1ccccc1)Nc1ccccc1Cl [Compound 5, 1-(2-chlorophenyl)-3-phenylthiourea]",1310 µM,29 ± 0.3%,35.5 ± 0.5%,41.7 ± 0.77%,59.7 ± 0.61%,1180 µM,31.7 ± 0.61%,37.5 ± 0.5%,44.5 ± 0.64%,63.86 ± 0.6%,71.6 ± 0.74%,,,66.79 ± 0.63%,,
"CCCCN(CCCC)C(=S)Nc1ccccc1 [Compound 4, 1-(1,1-dibutyl)-3-phenylthiourea]",219 µM,47.9 ± 0.47%,71.8 ± 1.5%,77.8 ± 2.26%,85.4 ± 0.2%,238 µM,53.5 ± 0.9%,77.4 ± 1.7%,89.8 ± 1.5%,94.4 ± 0.5%,98%,,,93.6 ± 1.12%,39 ± 0.88%,47.3 ± 0.7%
"CC(C)(C)NC(=S)NC1CCCCC1 [Compound 2, 1-tert-butyl-3-cyclohexylthiourea]",1400 µM,38.7 ± 0.68%,44.7 ± 1.25%,48 ± 0.75%,56.3 ± 1.06%,863 µM,41.3 ± 1.01%,46.7 ± 0.78%,51.4 ± 1.65%,57.9 ± 0.97%,65.2 ± 0.72%,,,63.3 ± 0.98%,,
